These results are taken from patent US10561658B2, “Thieno- and pyrrolopyrimidine analogues as anticancer agents and methods of use thereof” (UNIVERSITY OF MARYLAND, BALTIMORE COUNTY, priority 2015, dated 2020).

A value given as a limit tells only on which side of the number the result lay.

Data set [1] deals with Pseudomonas aeruginosa ATCC 27853. The data set can be described thus: Antimicrobial growth inhibition, P. aeruginosa. The data set is classed as cell-based. As to conditions: ATCC27853; Pseudomonas aeruginosa ATCC 27853, 100 μM. As for the experimental part:
Evaluation of antimicrobial activity in vitro. Compounds were tested against the following panel of bacteria and fungi purchased from the American Type Culture Collection (ATCC). Briefly, bacteria were grown to mid-log phase, diluted with fresh medium to an optical density at 600 nm (OD600) of 0.030-0.060 and then diluted again 1:10. This suspension (195 μL) was added to wells in a 96 well microtiter plate (Sarstedt) and 5 μL of compound dissolved in DMSO was added to give a final concentration of 100-0.1 μM at 2.5% DMSO by volume. A DMSO negative control and standard antibiotic positive controls were included in each plate. All compounds were tested in triplicate for each concentration. Plates were sealed with parafilm, placed in a Ziploc bag to prevent evaporation, and incubated at 30° C. (fungi) or 37° C. (bacteria) for 16-20 hours (48 hours for C. neoformans). The OD600 values for each well were determined with a plate reader (Biotek, EL800) and the data were standardized to the DMSO control wells after subtracting the background from blank medium. Initial single concentrations were tested at 100 μM and active compounds were further tested with at least nine concentrations for a full dose response. Dose response curves were generated using GraphPad Prism 5 software and used to determine the MIC95 concentrations (minimal concentration that inhibits 95% of growth). […]

For a further data set, the system named is twenty kinases. The data set can be described thus: Select Screen kinase profiling, twenty kinases. The data set is classed as biochemical. The note with it: 5 μM. From the text:
(§1) The thieno[3,2-d]pyrimidine scaffold has been used extensively in the design of kinase inhibitors.

In another data set the test system is MDA-MB-231 cells. Nature of the data set: MTT cytotoxicity, MDA-MB-231. The data set is classed as cell-based. The note with it: Homo sapiens; MDA-MB-231, cell viability (MTT), 48 h; read-out: IC80 (equitoxic dose). Here is the method: Human metastatic breast cancer MDA-MB-231 cells were obtained from the American Type Culture Collection (ATCC) (Rockville, Md.) and maintained in Dulbecco's Modified Eagle's Medium (DMEM) containing 10% fetal bovine serum (FBS) without antibiotics at 37° C. in a humidified, CO2-controlled incubator. The cytotoxicity of compounds 1 and 2 was assessed by reduction of 3-(4, 5-dimethylthiazol-2-yl)-2,5-diphenyltetrazolium bromide (MTT). MDA-MB-231 cells were seeded in 96-well plates at 5×10^3 cells per well and treated with a range of drug concentrations. After 48 hours, cell viability was measured using the MTT Cell Proliferation Assay kit (ATCC) according to the manufacturer's instructions. Percent cell viability was plotted as a function of drug concentrations and analyzed using a sigmoidal dose response function with PRISM v3.03 software (GraphPad) to resolve drug concentrations yielding 50% cell death (IC50). The cell cycle distributions of MDA-MB-231 cells treated with compounds 1 or 2 were analyzed using propidium iodide staining and flow cytometry. 2×10^6 cells were seeded in 100 mm dishes and treated with compounds 1 or 2 at the IC80 values determined by cell viability assays or an equivalent volume of DMSO. 48 h following treatment the cells were collected, fixed, and stained with propidium iodide (Sigma Aldrich) immediately before analysis by flow cytometry.

Data set [2] is described as follows: In vivo systemic (IP) toxicity, body weight. The text has this: When dosing was completed, the mice were monitored for 14 days to determine any toxicity. In mice the best indicator of toxicity is weight loss.
In another data set the target is TYK2 (Homo sapiens, UniProt P29597). Nature of the data set: Select Screen kinase profiling. Format: biochemical.
From the text: as §1

The target of the next data set is PIK3C2A (Homo sapiens, UniProt O00443). Nature of the data set: Select Screen kinase profiling. Format: biochemical.
From the text: as §1

For another data set, the target named is PIK3CD/PIK3R1 (Homo sapiens, UniProt O00329). Nature of the data set: Select Screen kinase profiling. The data set is classed as biochemical.
From the text: as §1

Another data set addresses JAK3 (Homo sapiens, UniProt P52333). The data set can be described thus: Select Screen kinase profiling. The data set is classed as biochemical.
From the text: as §1

In another data set the target is SRC (Homo sapiens, UniProt P12931). The data set can be described thus: Select Screen kinase profiling. Format: biochemical.
From the text: as §1

The target in the next data set is PIK3CA/PIK3R1 (Homo sapiens, UniProt P42336). The data set can be described thus: Select Screen kinase profiling. The data set is classed as biochemical.
Sequence of PIK3CA/PIK3R1 (P42336 whole entry): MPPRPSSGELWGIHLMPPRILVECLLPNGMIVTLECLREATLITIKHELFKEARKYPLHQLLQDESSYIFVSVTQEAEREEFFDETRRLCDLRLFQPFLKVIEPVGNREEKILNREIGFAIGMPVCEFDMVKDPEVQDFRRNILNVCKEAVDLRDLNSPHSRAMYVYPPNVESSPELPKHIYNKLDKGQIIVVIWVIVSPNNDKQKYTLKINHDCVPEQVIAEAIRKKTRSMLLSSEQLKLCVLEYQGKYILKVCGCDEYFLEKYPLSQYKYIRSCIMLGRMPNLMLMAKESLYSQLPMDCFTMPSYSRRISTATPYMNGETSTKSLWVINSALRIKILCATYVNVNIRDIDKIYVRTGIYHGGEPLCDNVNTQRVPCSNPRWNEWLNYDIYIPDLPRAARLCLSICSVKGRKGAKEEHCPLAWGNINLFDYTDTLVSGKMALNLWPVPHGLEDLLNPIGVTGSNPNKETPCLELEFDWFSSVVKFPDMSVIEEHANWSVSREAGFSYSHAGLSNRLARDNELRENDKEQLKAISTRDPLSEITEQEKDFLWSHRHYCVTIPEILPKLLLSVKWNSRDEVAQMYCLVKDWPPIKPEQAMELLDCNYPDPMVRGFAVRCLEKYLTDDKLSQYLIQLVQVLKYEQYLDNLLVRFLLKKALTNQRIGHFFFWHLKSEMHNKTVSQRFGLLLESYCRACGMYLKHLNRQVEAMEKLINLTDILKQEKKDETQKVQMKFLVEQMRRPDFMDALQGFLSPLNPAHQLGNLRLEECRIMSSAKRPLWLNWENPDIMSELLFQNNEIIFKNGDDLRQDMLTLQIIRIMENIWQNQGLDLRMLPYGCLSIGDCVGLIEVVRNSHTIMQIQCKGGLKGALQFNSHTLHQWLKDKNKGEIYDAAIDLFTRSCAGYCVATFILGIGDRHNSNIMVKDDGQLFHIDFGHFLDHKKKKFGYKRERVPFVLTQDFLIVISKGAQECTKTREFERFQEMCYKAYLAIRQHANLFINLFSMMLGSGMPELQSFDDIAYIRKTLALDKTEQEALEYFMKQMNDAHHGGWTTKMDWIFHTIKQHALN
Sequence of PIK3CA/PIK3R1 (P27986 whole entry partner): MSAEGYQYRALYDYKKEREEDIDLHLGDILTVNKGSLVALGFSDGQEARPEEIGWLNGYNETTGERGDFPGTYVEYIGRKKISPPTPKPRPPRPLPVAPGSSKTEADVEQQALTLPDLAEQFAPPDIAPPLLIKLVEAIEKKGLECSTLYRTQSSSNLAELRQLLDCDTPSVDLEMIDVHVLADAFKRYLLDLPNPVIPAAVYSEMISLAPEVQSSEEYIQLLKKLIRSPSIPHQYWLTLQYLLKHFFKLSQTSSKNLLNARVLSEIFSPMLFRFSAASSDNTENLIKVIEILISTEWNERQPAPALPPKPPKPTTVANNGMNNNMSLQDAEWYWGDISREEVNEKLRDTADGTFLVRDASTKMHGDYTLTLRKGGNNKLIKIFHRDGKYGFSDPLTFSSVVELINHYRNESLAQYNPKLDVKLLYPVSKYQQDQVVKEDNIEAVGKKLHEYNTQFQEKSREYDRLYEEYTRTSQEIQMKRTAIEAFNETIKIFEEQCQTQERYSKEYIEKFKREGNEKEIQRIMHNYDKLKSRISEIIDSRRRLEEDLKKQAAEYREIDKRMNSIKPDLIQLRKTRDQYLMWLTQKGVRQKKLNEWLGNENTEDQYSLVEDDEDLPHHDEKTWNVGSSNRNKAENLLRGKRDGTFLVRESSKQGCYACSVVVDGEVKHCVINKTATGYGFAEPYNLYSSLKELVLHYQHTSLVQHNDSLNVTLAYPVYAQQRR
From the text: as §1

A further data set deals with JAK1 (Homo sapiens, UniProt P23458). The data set can be described thus: Select Screen kinase profiling. The data set is classed as biochemical.
Sequence of JAK1 (P23458 whole entry): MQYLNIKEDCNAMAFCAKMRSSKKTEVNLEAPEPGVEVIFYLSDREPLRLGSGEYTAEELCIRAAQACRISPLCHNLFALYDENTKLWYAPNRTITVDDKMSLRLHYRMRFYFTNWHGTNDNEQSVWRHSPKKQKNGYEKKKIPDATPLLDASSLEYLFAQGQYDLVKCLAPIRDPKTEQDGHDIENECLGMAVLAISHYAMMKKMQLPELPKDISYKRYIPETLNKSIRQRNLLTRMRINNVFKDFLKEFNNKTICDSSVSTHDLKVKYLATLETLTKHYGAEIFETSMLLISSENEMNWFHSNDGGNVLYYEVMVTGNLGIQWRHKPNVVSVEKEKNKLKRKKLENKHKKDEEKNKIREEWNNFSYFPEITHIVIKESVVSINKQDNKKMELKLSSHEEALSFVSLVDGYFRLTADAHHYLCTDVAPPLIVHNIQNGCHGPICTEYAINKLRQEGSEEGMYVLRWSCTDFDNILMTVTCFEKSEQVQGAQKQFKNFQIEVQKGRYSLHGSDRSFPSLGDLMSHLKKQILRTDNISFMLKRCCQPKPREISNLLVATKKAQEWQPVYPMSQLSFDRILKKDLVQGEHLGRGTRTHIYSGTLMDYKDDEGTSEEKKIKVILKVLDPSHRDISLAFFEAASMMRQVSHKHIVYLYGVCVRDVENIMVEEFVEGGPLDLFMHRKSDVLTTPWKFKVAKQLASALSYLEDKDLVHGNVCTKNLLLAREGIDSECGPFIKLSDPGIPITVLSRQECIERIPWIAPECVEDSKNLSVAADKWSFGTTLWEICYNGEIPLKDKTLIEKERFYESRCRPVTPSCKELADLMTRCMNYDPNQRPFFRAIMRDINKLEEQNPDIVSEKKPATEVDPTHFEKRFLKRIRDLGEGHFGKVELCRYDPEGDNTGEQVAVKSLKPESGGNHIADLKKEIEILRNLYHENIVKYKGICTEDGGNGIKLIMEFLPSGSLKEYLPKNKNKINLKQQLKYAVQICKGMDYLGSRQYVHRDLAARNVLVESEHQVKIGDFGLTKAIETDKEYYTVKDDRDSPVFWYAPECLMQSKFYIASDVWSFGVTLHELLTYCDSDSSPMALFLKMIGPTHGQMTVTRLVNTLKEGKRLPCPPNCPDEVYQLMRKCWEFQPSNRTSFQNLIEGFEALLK
From the text: as §1

In a further data set the target is PRKD2 (PKD2) (Homo sapiens, UniProt Q9BZL6). Nature of the data set: Select Screen kinase profiling. The data set is classed as biochemical.
From the text: as §1

The target of another data set is PIK3C2B (Homo sapiens, UniProt O00750). The data set can be described thus: Select Screen kinase profiling. The data set is classed as biochemical.
From the text: as §1

The next data set deals with PIK3C3 (Homo sapiens, UniProt Q8NEB9). Nature of the data set: Select Screen kinase profiling. Format: biochemical.
From the text: as §1

In the next data set the target is FRAP1 (mTOR) (Homo sapiens, UniProt P42345). The data set can be described thus: Select Screen kinase profiling. The data set is classed as biochemical.
From the text: as §1

For the next data set, the target named is T1, JAK2 JHI JH2 (Homo sapiens, UniProt O60674).
T1 construct: JAK2 JHI JH2
T1 sequence (O60674 532-1132 limits assumed): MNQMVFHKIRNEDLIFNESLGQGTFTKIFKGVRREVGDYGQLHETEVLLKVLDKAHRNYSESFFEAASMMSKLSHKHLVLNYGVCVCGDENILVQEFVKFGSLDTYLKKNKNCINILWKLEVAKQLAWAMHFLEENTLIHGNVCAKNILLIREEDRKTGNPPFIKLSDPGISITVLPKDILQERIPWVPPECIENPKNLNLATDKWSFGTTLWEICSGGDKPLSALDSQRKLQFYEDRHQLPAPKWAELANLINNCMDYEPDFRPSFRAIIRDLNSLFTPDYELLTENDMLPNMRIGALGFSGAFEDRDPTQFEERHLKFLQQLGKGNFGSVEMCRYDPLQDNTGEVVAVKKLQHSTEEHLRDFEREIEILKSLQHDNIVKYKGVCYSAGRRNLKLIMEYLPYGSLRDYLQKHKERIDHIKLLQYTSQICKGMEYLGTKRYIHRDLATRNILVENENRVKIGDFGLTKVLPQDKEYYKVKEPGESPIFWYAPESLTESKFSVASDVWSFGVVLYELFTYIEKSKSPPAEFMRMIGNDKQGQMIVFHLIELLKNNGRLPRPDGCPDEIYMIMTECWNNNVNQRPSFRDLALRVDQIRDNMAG
Nature of the data set: Select Screen kinase profiling. Format: biochemical.
From the text: as §1

Another data set deals with PRKD1 (PKC mu) (Homo sapiens, UniProt Q15139). The data set can be described thus: Select Screen kinase profiling. Format: biochemical.
From the text: as §1

Another data set concerns the target JAK2 (Homo sapiens, UniProt O60674). Nature of the data set: Select Screen kinase profiling. Format: biochemical.
From the text: as §1

A further data set concerns the target SRC N1 (Homo sapiens, UniProt P12931). Nature of the data set: Select Screen kinase profiling. Format: biochemical.
From the text: as §1

The target in another data set is T2, JAK2 JH1 JH2 V617F (Homo sapiens, UniProt O60674, V617F).
T2 construct: JAK2 JH1 JH2 V617F
T2 sequence (O60674 532-1132 V617F limits assumed): as the sequence (O60674 532-1132 limits assumed) above, with V86F counted along it
The data set can be described thus: Select Screen kinase profiling. Format: biochemical.
From the text: as §1

In another data set the target is PIK3CG (Homo sapiens, UniProt P48736). The data set can be described thus: Select Screen kinase profiling. The data set is classed as biochemical.
From the text: as §1

The target in a further data set is MET (cMet) (Homo sapiens, UniProt P08581). Nature of the data set: Select Screen kinase profiling. The data set is classed as biochemical.
From the text: as §1

The target in the next data set is PRKCN (PKD3) (Homo sapiens, UniProt O94806). Nature of the data set: Select Screen kinase profiling. Format: biochemical.
From the text: as §1

The next data set addresses LTK (TYK1) (Homo sapiens, UniProt P29376). The data set can be described thus: Select Screen kinase profiling. The data set is classed as biochemical.
From the text: as §1

Sequence of JAK3 (P52333 whole entry): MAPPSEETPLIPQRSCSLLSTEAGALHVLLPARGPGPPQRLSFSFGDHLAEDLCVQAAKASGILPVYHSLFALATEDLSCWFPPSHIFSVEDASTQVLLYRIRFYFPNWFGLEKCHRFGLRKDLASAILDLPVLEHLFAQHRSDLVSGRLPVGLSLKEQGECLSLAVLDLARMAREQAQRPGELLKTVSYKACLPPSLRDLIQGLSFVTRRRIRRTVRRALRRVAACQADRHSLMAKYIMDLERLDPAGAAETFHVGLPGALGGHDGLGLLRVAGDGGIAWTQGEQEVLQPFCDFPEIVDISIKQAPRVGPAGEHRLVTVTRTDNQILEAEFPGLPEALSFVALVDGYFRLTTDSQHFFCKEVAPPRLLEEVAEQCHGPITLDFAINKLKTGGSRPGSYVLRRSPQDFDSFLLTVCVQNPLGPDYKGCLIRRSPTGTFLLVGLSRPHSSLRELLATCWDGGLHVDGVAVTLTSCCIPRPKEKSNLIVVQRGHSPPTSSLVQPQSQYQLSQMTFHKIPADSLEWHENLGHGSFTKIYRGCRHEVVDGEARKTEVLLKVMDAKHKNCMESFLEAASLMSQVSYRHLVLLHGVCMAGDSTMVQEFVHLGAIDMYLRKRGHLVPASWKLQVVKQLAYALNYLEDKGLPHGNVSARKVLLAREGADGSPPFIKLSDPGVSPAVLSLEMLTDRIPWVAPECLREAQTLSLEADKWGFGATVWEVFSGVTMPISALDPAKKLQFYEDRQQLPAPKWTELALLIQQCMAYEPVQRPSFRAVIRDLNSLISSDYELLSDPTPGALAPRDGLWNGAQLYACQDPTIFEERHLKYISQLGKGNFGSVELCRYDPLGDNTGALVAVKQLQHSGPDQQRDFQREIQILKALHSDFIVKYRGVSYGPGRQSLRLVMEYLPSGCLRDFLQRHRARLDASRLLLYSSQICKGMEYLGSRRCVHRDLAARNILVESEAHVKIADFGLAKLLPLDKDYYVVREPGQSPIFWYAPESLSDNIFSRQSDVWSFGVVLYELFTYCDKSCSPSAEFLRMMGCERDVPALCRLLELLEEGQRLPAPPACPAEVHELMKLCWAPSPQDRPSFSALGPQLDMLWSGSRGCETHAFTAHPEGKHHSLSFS

What is called inhibition is the relative decrease from the control value, in per cent. A high value points to a strong effect. The IC80 is the concentration needed for an effect of 80%. With `Clc1nc(Cl)c2sccc2n1` [Compound 1, 2,4-Dichlorothieno[3,2-d]pyrimidine], the inhibition at 100 µM in data set [1] was less than 43%. The “inhibitory activity against twenty kinases” value with twenty kinases is reported as “did not exhibit any substantial inhibitory activity”. In addition, the concentration for an effect of 80% (IC80) with MDA-MB-231 cells amounted to 15 µM. The body weight entry in data set [2] (20 mg/kg IP, 5 days) was “maintaining their weight”. The “toxicity when administered systemically” value in data set [2] (daily IP doses 5 consecutive days, monitored 14 days) is listed as “non-toxic”. The inhibition at 5 µM against TYK2, against PIK3C2A, against PIK3CD/PIK3R1, against JAK3, against SRC and at PIK3CA/PIK3R1 was less than 40% in each case. Besides, the inhibition at 5 µM at JAK1, on PRKD2 (PKD2), against PIK3C2B, against PIK3C3, against FRAP1 (mTOR) and on JAK2 JHI JH2 was less than 40% in each case. Besides, the inhibition at 5 µM against PRKD1 (PKC mu), against JAK2, on SRC N1, on JAK2 JH1 JH2 V617F, against PIK3CG and against MET (cMet) was less than 40% each time. Besides, the inhibition at 5 µM at PRKCN (PKD3) and at LTK (TYK1) was less than 40% throughout.
`Clc1nc(Cl)c2scc(Br)c2n1` [Compound 2, 7-Bromo-2,4-dichlorothieno[3,2-d]pyrimidine] had an inhibition at 100 µM in data set [1] of less than 43%. The “inhibitory activity against twenty kinases” value in the data set with twenty kinases is recorded as “did not exhibit any substantial inhibitory activity”. For the same compound, the IC80 in the data set on MDA-MB-231 cells turned out to be 8 µM.
